Each structure is given as a SMILES string.

The IC50 is the concentration that gives 50% inhibition. A higher IC50 goes with weaker potency.

In this experiment the target is human Nav1.8 (Homo sapiens (Human), UniProt Q9Y5Y9). As to the kind of experiment: E-VIPR optical membrane potential assay with electrical stimulation. The experiment is classed as cell-based. Particulars: HEK cells expressing human Nav1.8. An excerpt: Assays for Detecting and Measuring NaV Inhibition Properties of Compounds E-VIPR Optical Membrane Potential Assay Method with Electrical Stimulation
human Nav1.8, sequence (Q9Y5Y9 whole entry): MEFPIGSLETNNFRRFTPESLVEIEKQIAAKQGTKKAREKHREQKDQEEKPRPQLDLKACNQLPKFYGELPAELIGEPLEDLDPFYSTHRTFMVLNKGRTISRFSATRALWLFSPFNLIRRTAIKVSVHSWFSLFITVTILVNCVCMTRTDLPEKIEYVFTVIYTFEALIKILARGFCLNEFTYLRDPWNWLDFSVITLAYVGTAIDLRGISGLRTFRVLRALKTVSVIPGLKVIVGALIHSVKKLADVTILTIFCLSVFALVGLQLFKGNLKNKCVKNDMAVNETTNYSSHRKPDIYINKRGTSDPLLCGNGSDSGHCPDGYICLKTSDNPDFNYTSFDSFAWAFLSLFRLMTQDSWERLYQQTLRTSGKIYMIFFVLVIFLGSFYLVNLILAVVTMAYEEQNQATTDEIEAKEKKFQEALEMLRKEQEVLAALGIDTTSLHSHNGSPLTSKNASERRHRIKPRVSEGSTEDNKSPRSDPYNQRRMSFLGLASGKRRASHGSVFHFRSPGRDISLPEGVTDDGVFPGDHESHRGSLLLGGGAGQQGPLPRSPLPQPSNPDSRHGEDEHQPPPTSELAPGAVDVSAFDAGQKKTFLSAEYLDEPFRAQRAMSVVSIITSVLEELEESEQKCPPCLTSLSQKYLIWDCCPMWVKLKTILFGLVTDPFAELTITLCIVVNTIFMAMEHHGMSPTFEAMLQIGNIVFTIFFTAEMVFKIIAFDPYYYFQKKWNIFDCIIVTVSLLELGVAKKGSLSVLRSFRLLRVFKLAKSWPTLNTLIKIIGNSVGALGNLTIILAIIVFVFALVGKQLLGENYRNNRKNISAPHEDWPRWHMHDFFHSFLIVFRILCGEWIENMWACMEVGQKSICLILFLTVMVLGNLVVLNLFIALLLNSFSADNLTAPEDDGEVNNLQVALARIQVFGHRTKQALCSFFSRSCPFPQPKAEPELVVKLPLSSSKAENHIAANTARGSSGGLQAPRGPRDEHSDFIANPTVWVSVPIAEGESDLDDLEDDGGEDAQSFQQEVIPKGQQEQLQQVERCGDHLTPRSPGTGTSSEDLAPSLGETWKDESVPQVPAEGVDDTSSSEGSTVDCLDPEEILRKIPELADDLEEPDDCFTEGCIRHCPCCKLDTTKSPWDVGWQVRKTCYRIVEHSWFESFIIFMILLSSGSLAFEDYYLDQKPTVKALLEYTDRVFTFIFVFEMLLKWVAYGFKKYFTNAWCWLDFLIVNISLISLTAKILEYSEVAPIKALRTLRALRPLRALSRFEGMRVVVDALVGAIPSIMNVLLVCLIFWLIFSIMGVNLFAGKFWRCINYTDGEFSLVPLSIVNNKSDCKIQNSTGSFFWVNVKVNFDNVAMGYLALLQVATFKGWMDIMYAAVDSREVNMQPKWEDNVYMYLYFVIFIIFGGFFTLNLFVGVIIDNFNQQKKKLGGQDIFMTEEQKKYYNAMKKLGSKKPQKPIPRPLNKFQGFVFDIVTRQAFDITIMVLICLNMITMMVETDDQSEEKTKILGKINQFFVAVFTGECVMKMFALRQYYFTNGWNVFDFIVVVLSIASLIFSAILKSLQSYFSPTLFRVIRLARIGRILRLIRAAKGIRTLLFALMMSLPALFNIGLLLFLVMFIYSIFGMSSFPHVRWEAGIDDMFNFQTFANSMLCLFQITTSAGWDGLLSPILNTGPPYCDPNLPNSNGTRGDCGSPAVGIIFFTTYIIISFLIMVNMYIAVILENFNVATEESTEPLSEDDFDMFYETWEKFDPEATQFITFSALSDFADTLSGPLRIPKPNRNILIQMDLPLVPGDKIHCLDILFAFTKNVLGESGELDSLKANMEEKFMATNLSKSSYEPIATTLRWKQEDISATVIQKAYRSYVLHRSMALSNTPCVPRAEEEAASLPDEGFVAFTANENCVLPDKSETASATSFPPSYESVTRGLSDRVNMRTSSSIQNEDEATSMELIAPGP
Sodium channels are voltage-dependent proteins that can be activated by inducing membrane voltage changes by applying electric fields. The electrical stimulation instrument and methods of use are described in Ion Channel Assay Methods PCT/US01/21652, herein incorporated by reference and are referred to as E-VIPR. The instrument comprises a microtiter plate handler, an optical system for exciting the coumarin dye while simultaneously recording the coumarin and oxonol emissions, a waveform generator, a current- or voltage-controlled amplifier, and a device for inserting electrodes in well. Under integrated computer control, this instrument passes user-programmed electrical stimulus protocols to cells within the wells of the microtiter plate.
24 hours before the assay on E-VIPR, HEK cells expressing human Nav1.8 were seeded in 384-well poly-lysine coated plates at 15,000-20,000 cells per well. HEK cells were grown in media (exact composition is specific to each cell type and NaV subtype) supplemented with 10% FBS (Fetal Bovine Serum, qualified; GibcoBRL #16140-071) and 1% Pen-Strep (Penicillin-Streptomycin; GibcoBRL #15140-122). Cells were grown in vented cap flasks, in 90% humidity and 5% CO2.
100 mg/mL Pluronic F-127 (Sigma #P2443), in dry DMSO
Compound Plates: 384-well round bottom plate, e.g. Corning 384-well Polypropylene Round Bottom #3656
Cell Plates: 384-well tissue culture treated plate, e.g. Greiner #781091-1B
Bath1 buffer: Glucose 10 mM (1.8 g/L), Magnesium Chloride (Anhydrous), 1 mM (0.095 g/L), Calcium Chloride, 2 mM (0.222 g/L), HEPES 10 mM (2.38 g/L), Potassium Chloride, 4.5 mM (0.335 g/L), Sodium Chloride 160 mM (9.35 g/L).
Hexyl Dye Solution: Bath1 Buffer+0.5% β-cyclodextrin (make this prior to use, Sigma #C4767), 8 μM CC2-DMPE+2.5 μM DiSBAC6(3). To make the solution added volume of 10% Pluronic F127 stock equal to volumes of CC2-DMPE+DiSBAC6(3). The order of preparation was first mix Pluronic and CC2-DMPE, then added DiSBAC6(3) while vortexing, then added Bath1+β-Cyclodextrin.
1) Pre-spotted compounds (in neat DMSO) into compound plates. Vehicle control (neat DMSO), the positive control (20 mM DMSO stock tetracaine, 125 μM final in assay) and test compounds were added to each well at 160× desired final concentration in neat DMSO. Final compound plate volume was 80 μL (80-fold intermediate dilution from 1 μL DMSO spot; 160-fold final dilution after transfer to cell plate). Final DMSO concentration for all wells in assay was 0.625%.
2) Prepared Hexyl Dye Solution.
3) Prepared cell plates. On the day of the assay, medium was aspirated and cells were washed three times with 100 μL of Bath1 Solution, maintaining 25 μL residual volume in each well.
4) Dispensed 25 μL per well of Hexyl Dye Solution into cell plates. Incubated for 20-35 minutes at room temp or ambient conditions.
5) Dispensed 80 μL per well of Bath1 into compound plates. Acid Yellow-17 (1 mM) was added and Potassium Chloride was altered from 4.5 to 20 mM depending on the NaV subtype and assay sensitivity.
6) Washed cell plates three times with 100 μL per well of Bath1, leaving 25 μL of residual volume. Then transfered 25 uL per well from Compound Plates to Cell Plates. Incubated for 20-35 minutes at room temp/ambient condition.
7) Read Plate on E-VIPR. Used the current-controlled amplifier to deliver stimulation wave pulses for 10 seconds and a scan rate of 200 Hz. A pre-stimulus recording was performed for 0.5 seconds to obtain the un-stimulated intensities baseline. The stimulatory waveform was followed by 0.5 seconds of post-stimulation recording to examine the relaxation to the resting state.
Data was analyzed and reported as normalized ratios of emission intensities measured in the 460 nm and 580 nm channels. The response as a function of time was reported as the ratios obtained using the following formula: […]
`O=C(O)c1ccc(NC(=O)c2cc(C(F)(F)F)ccc2Oc2ccccc2Cl)cn1` [Compound 63, 5-(2-(2-chlorophenoxy)-5-(trifluoromethyl)benzamido)picolinic acid] came in with an IC50 of 0.43 µM. The same measure for `CC(C)Oc1ccccc1Oc1ccc(C(F)(F)F)cc1C(=O)Nc1ccc(C(=O)O)nc1` [Compound 64, 5-(2-(2-isopropoxyphenoxy)-5-(trifluoromethyl)benzamido)picolinic acid]: 0.755 µM; for `COc1ccc(Oc2ccc(C(F)(F)F)cc2C(=O)Nc2ccc(C(=O)O)nc2)c(OC)c1` [Compound 65, 5-(2-(2,4-dimethoxyphenoxy)-5-(trifluoromethyl)benzamido)picolinic acid]: 0.039 µM.

Compound `COc1cc(Cl)ccc1Oc1ccc(C(F)(F)F)cc1C(=O)Nc1ccc(C(=O)O)nc1` [Compound 66, 5-(2-(4-chloro-2-methoxyphenoxy)-5-(trifluoromethyl)benzamido)picolinic acid] yielded an IC50 of 0.068 µM. `COc1ccc(Oc2ccc(C(F)(F)F)cc2C(=O)Nc2ccc(C(=O)O)nc2)c(C)c1` [Compound 67, 5-(2-(4-methoxy-2-methylphenoxy)-5-(trifluoromethyl)benzamido)picolinic acid] came in with an IC50 of 0.079 µM. For `COc1ccc(Oc2ccc(C(F)(F)F)cc2C(=O)Nc2ccc(C(=O)O)nc2)c(Cl)c1` [Compound 68, 5-(2-(2-chloro-4-methoxyphenoxy)-5-(trifluoromethyl)benzamido)picolinic acid], 0.135 µM corresponded to half-maximal inhibition (IC50). `COc1c(F)cccc1Oc1ccc(C(F)(F)F)cc1C(=O)Nc1ccc(C(=O)O)nc1` [Compound 69, 5-(2-(3-fluoro-2-methoxyphenoxy)-5-(trifluoromethyl)benzamido)picolinic acid]: half-maximal inhibition (IC50) was put at 0.135 µM.

As to `O=C(O)c1ccc(NC(=O)c2cc(C(F)(F)F)ccc2Oc2ccccc2)cn1` [Compound 70, 5-(2-phenoxy-5-(trifluoromethyl)benzamido)picolinic acid], 0.985 µM corresponded to half-maximal inhibition (IC50). In turn, `O=C(O)c1ccc(NC(=O)c2cc(C(F)(F)F)ccc2Oc2ccc(F)cc2)cn1` [Compound 71, 5-(2-(4-fluorophenoxy)-5-(trifluoromethyl)benzamido)picolinic acid] returned an IC50 of 0.285 µM. `COc1cc(F)ccc1Oc1cc(C(F)(F)C(F)(F)F)ccc1C(=O)Nc1ccc(C(=O)O)nc1` [Compound 72, 5-(2-(4-fluoro-2-methoxyphenoxy)-4-(perfluoroethyl)benzamido)picolinic acid]: the IC50 amounted to 0.035 µM. For the compound `O=C(O)c1ccc(NC(=O)c2ccc(C(F)(F)C(F)(F)F)cc2Oc2ccc(F)cc2)cn1` [Compound 73, 5-(2-(4-fluorophenoxy)-4-(perfluoroethyl)benzamido)picolinic acid], the IC50 was 0.11 µM. On to `O=C(O)c1ccc(NC(=O)c2c(Oc3ccc(F)cc3Cl)cccc2C(F)(F)F)cn1` [Compound 74, 5-(2-(2-chloro-4-fluorophenoxy)-6-(trifluoromethyl)benzamido)picolinic acid], for which the half-inhibitory concentration (IC50) is 0.405 µM.

In turn, `Cc1cc(F)ccc1Oc1ccc(C(F)(F)F)cc1C(=O)Nc1ccc(C(=O)O)nc1` [Compound 75, 5-(2-(4-fluoro-2-methylphenoxy)-5-(trifluoromethyl)benzamido)picolinic acid] showed a 50% inhibitory concentration (IC50) of 0.108 µM.

Values taken from patent US9108903B2, “Amides as modulators of sodium channels” (VERTEX PHARMACEUTICALS INCORPORATED, priority 2013, dated 2015).
